Our source for the IC50 values is patent US9000029B2, “Proline sulfonamide derivatives as orexin receptor antagonists” (Actelion Pharmaceuticals Ltd., priority 2010, dated 2015).

SMILES strings stand for the structures. Read-outs that look alike come from different tables or passages of the source.

The target of test [1] is human orexin-1 receptor (Homo sapiens (Human), UniProt O43613). Nature of the test: Intracellular calcium measurements (FLIPR), antagonism of orexin-A response. The test is classed as cell-based. Particulars: CHO cells, 3 nM orexin-A, read-out: IC50 Ox1. On the procedure: (§1) In Vitro Assay: Intracellular Calcium Measurements:
(§2) Chinese hamster ovary (CHO) cells expressing the human orexin-1 receptor and the human orexin-2 receptor, respectively, are grown in culture medium (Ham F-12 with L-Glutamine) containing 300 μg/ml G418, 100 U/ml penicillin, 100 μg/ml streptomycin and 10% heat inactivated fetal calf serum (FCS). The cells are seeded at 20'000 cells/well into 384-well black clear bottom sterile plates (Greiner). The seeded plates are incubated overnight at 37° C. in 5% CO2.
(§3) Human orexin-A as an agonist is prepared as 1 mM stock solution in MeOH: water (1:1), diluted in HBSS containing 0.1% bovine serum albumin (BSA), NaHCO3: 0.375 g/l and 20 mM HEPES for use in the assay at a final concentration of 3 nM.
(§4) Antagonists are prepared as 10 mM stock solution in DMSO, then diluted in 384-well plates using DMSO followed by a transfer of the dilutions into in HBSS containing 0.1% bovine serum albumin (BSA), NaHCO3: 0.375 g/l and 20 mM HEPES. On the day of the assay, 50 μl of staining buffer (HBSS containing 1% FCS, 20 mM HEPES, NaHCO3: 0.375 g/l, 5 mM probenecid (Sigma) and 3 μM of the fluorescent calcium indicator fluo-4 AM (1 mM stock solution in DMSO, containing 10% pluronic) is added to each well. The 384-well cell-plates are incubated for 50 min at 37° C. in 5% CO2 followed by equilibration at RT for 30 min before measurement.
(§5) Within the Fluorescent Imaging Plate Reader (FLIPR Tetra, Molecular Devices), antagonists are added to the plate in a volume of 10 μl/well, incubated for 10 min or (where explicitly indicated) for 120 min and finally 10 μl/well of agonist is added. Fluorescence is measured for each well at 1 second intervals, and the height of each fluorescence peak is compared to the height of the fluorescence peak induced by 3 nM orexin-A with vehicle in place of antagonist. The IC50 value (the concentration of compound needed to inhibit 50% of the agonistic response) is determined and may be normalized using the obtained IC50 value of a on-plate reference compound. Optimized conditions were achieved by adjustment of pipetting speed and cell splitting regime. The calculated IC50 values may fluctuate depending on the daily cellular assay performance. Fluctuations of this kind are known to those skilled in the art.
(Calcium flux is commonly read through the fluorescence of an indicator in the cells.)

The target of test [2] is human orexin-2 receptor (Homo sapiens (Human), UniProt O43614). Described as above. The test is classed as cell-based. Particulars: CHO cells, 3 nM orexin-A, read-out: IC50 Ox2. As for the experimental part: as §1, §2, §3, §4, §5
Chain of human orexin-2 receptor (O43614 whole entry): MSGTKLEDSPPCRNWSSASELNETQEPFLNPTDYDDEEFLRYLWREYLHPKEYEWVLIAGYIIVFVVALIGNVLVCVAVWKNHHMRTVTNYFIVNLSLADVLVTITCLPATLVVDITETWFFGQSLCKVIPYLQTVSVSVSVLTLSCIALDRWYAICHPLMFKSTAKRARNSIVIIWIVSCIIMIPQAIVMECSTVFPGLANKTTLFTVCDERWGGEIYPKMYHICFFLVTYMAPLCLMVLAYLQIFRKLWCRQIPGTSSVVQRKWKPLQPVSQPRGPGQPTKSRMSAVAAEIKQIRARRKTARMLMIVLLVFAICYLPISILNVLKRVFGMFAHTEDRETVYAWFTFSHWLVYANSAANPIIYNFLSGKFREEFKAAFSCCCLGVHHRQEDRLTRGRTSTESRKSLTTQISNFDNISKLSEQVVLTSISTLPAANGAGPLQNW
[3] abbreviates: compound incubation time of 120 min.

Chain of human orexin-1 receptor (O43613 whole entry): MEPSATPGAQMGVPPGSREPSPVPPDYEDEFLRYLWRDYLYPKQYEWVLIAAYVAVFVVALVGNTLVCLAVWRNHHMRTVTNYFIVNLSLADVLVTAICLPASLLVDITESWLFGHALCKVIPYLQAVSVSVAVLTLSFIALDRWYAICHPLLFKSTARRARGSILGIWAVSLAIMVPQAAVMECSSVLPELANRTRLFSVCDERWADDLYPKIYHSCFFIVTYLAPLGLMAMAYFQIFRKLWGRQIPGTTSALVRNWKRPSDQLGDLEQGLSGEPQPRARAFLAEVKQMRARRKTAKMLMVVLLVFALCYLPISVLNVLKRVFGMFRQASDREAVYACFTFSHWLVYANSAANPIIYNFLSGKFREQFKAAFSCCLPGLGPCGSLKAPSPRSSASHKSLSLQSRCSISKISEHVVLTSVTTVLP

With `Cc1cc(C)cc(NC(=O)[C@@H]2CCCN2S(=O)(=O)c2ccc(Cl)c(C(F)(F)F)c2)c1` [Example 53, (S)-1-(4-Chloro-3-trifluoromethyl-benzenesulfonyl)-pyrrolidine-2-carboxylic acid (3,5-dimethyl-phenyl)-amide], the IC50 in test [1] (setting [3]) worked out at 48 nM; in test [2] (setting [3]) it was 19 nM.
`COc1ccc(S(=O)(=O)N2CCC[C@H]2C(=O)Nc2cc(Cl)ccc2OC)cc1` [Example 35, (S)-1-(4-Methoxy-benzenesulfonyl)-pyrrolidine-2-carboxylic acid (5-chloro-2-methoxy-phenyl)-amide]: the 50% inhibitory concentration (IC50) is 714 nM in test [1] (compound incubation 10 min) and 209 nM in test [2] (compound incubation 10 min).
With `Cc1cc(C)cc(NC(=O)[C@@H]2CCCN2S(=O)(=O)c2ccc(C)cc2C)c1` [Example 56, (S)-1-(2,4-Dimethyl-benzenesulfonyl)-pyrrolidine-2-carboxylic acid (3,5-dimethyl-phenyl)-amide], the figures for the 50% inhibitory concentration (IC50) in test [1] (setting [3]) and in test [2] (setting [3]) were 211 nM and 108 nM, respectively.
Taken in the same sequence, the figures for `Cc1cc(C)cc(NC(=O)[C@@H]2CCCN2S(=O)(=O)c2cccc3ccccc23)c1` [Example 42, (S)-1-(Naphthalene-1-sulfonyl)-pyrrolidine-2-carboxylic acid (3,5-dimethyl-phenyl)-amide] were 216 nM and 26 nM.
Turning to `COc1ccc(S(=O)(=O)N2CCC[C@H]2C(=O)Nc2ccc(F)c(Cl)c2)cc1` [Example 31, (S)-1-(4-Methoxy-benzenesulfonyl)-pyrrolidine-2-carboxylic acid (3-chloro-4-fluoro-phenyl)-amide], the IC50 in test [1] (compound incubation 10 min) turned out to be 74 nM; in test [2] (compound incubation 10 min) it was 34 nM.
For `CSc1cccc(NC(=O)[C@@H]2CCCN2S(=O)(=O)c2cccc(Cl)c2)c1` [Example 7, (S)-1-(3-Chloro-benzenesulfonyl)-pyrrolidine-2-carboxylic acid (3-methylsulfanyl-phenyl)-amide] the same measures were 8 nM and 2 nM.
Taken in the same sequence, the figures for `COc1ccc(S(=O)(=O)N2CCC[C@H]2C(=O)Nc2ccc(C)c(C)c2)cc1` [Example 23, (S)-1-(4-Methoxy-benzenesulfonyl)-pyrrolidine-2-carboxylic acid (3,4-dimethyl-phenyl)-amide] were 174 nM and 29 nM.
Consider `COc1ccc(S(=O)(=O)N2CCC[C@H]2C(=O)Nc2cccc(OC)c2)cc1` [Example 21, (S)-1-(4-Methoxy-benzenesulfonyl)-pyrrolidine-2-carboxylic acid (3-methoxy-phenyl)-amide], for which the concentration for half-maximal inhibition (IC50) came out at 182 nM in test [1] (compound incubation 10 min) and 47 nM in test [2] (compound incubation 10 min).
Taken in the same sequence, the figures for `COc1ccc(S(=O)(=O)N2CCC[C@H]2C(=O)Nc2cccc(C)c2)cc1` [Example 20, (S)-1-(4-Methoxy-benzenesulfonyl)-pyrrolidine-2-carboxylic acid m-tolylamide] were 214 nM and 17 nM.
For `COc1ccc(S(=O)(=O)N2CCC[C@H]2C(=O)Nc2cccc(C(F)(F)F)c2)cc1` [Example 17, (S)-1-(4-Methoxy-benzenesulfonyl)-pyrrolidine-2-carboxylic acid (3-trifluoromethyl-phenyl)-amide] the same measures were 55 nM and 9 nM.
Taken in the same sequence, the figures for `CSc1cccc(NC(=O)[C@@H]2CCCN2S(=O)(=O)c2cccc(Br)c2)c1` [Example 11, (S)-1-(3-Bromo-benzenesulfonyl)-pyrrolidine-2-carboxylic acid (3-methylsulfanyl-phenyl)-amide] were 7 nM and 2 nM.
`CSc1cccc(NC(=O)[C@@H]2CCCN2S(=O)(=O)c2ccc(Br)s2)c1` [Example 1, (S)-1-(5-Bromo-thiophene-2-sulfonyl)-pyrrolidine-2-carboxylic acid (3-methylsulfanyl-phenyl)-amide]: the figures for the 50% inhibitory concentration (IC50) in test [1] (compound incubation 10 min) and in test [2] (compound incubation 10 min) were 20 nM and 10 nM, respectively.
Taken in the same sequence, the figures for `COc1ccc(S(=O)(=O)N2CCC[C@H]2C(=O)Nc2ccc(F)c(F)c2)cc1` [Example 36, (S)-1-(4-Methoxy-benzenesulfonyl)-pyrrolidine-2-carboxylic acid (3,4-difluoro-phenyl)-amide] were 569 nM and 136 nM.
Consider `CCOc1cccc(NC(=O)[C@@H]2CCCN2S(=O)(=O)c2ccc(OC)cc2)c1` [Example 32, (S)-1-(4-Methoxy-benzenesulfonyl)-pyrrolidine-2-carboxylic acid (3-ethoxy-phenyl)-amide], for which the IC50 was 134 nM in test [1] (compound incubation 10 min) and 38 nM in test [2] (compound incubation 10 min).
For `CSc1cccc(NC(=O)[C@@H]2CCCN2S(=O)(=O)c2ccc(Cl)cc2)c1` [Example 9, (S)-1-(4-Chloro-benzenesulfonyl)-pyrrolidine-2-carboxylic acid (3-methylsulfanyl-phenyl)-amide] the same measures were 15 nM and 9 nM.
Taken in the same sequence, the figures for `CSc1cccc(NC(=O)[C@@H]2CCCN2S(=O)(=O)c2ccc(Br)cc2)c1` [Example 13, (S)-1-(4-Bromo-benzenesulfonyl)-pyrrolidine-2-carboxylic acid (3-methylsulfanyl-phenyl)-amide] were 22 nM and 10 nM.
Taken in the same sequence, the figures for `CSc1cccc(NC(=O)[C@@H]2CCCN2S(=O)(=O)c2ccc3c(c2)OCCN3C)c1` [Example 5, (S)-1-(4-Methyl-3,4-dihydro-2H-benzo[1,4]oxazine-7-sulfonyl)-pyrrolidine-2-carboxylic acid (3-methylsulfanyl-phenyl)-amide] were 128 nM and 27 nM.
For the compound `Cc1cc(C)cc(NC(=O)[C@@H]2CCCN2S(=O)(=O)c2ccc(Cl)cc2)c1` [Example 46, (S)-1-(4-Chloro-benzenesulfonyl)-pyrrolidine-2-carboxylic acid (3,5-dimethyl-phenyl)-amide], the IC50 in test [1] (setting [3]) is 35 nM; in test [2] (setting [3]) it was 32 nM.
Turning to `CSc1cccc(NC(=O)[C@@H]2CCCN2S(=O)(=O)c2ccc(C(F)(F)F)cc2)c1` [Example 8, (S)-1-(4-Trifluoromethyl-benzenesulfonyl)-pyrrolidine-2-carboxylic acid (3-methylsulfanyl-phenyl)-amide], the half-inhibitory concentration (IC50) stood at 63 nM in test [1] (compound incubation 10 min) and 17 nM in test [2] (compound incubation 10 min).
Taken in the same sequence, the figures for `COc1ccc(S(=O)(=O)N2CCC[C@H]2C(=O)Nc2cc(C)ccc2F)cc1` [Example 38, (S)-1-(4-Methoxy-benzenesulfonyl)-pyrrolidine-2-carboxylic acid (2-fluoro-5-methyl-phenyl)-amide] were 304 nM and 26 nM.
Taken in the same sequence, the figures for `COc1ccc(S(=O)(=O)N2CCC[C@H]2C(=O)Nc2cccc3ccccc23)cc1` [Example 24, (S)-1-(4-Methoxy-benzenesulfonyl)-pyrrolidine-2-carboxylic acid naphthalen-1-ylamide] were 269 nM and 171 nM.
For `COc1ccc(S(=O)(=O)N2CCC[C@H]2C(=O)Nc2cc(OC)ccc2Cl)cc1` [Example 29, (S)-1-(4-Methoxy-benzenesulfonyl)-pyrrolidine-2-carboxylic acid (2-chloro-5-methoxy-phenyl)-amide] the same measures were 625 nM and 128 nM.
In the case of `CCc1cccc(NC(=O)[C@@H]2CCCN2S(=O)(=O)c2ccc(OC)cc2)c1` [Example 34, (S)-1-(4-Methoxy-benzenesulfonyl)-pyrrolidine-2-carboxylic acid (3-ethyl-phenyl)-amide], the IC50 in test [1] (compound incubation 10 min) is 54 nM; in test [2] (compound incubation 10 min) it was 8 nM.
Regarding `COc1ccc(S(=O)(=O)N2CCC[C@H]2C(=O)Nc2cc(C)ccc2Cl)cc1` [Example 28, (S)-1-(4-Methoxy-benzenesulfonyl)-pyrrolidine-2-carboxylic acid (2-chloro-5-methyl-phenyl)-amide], the concentration for half-maximal inhibition (IC50) in test [1] (compound incubation 10 min) worked out at 305 nM; in test [2] (compound incubation 10 min) it was 224 nM.
`C=Cc1ccc(S(=O)(=O)N2CCC[C@H]2C(=O)Nc2cc(C)cc(C)c2)cc1` [Example 47, (S)-1-(4-Vinyl-benzenesulfonyl)-pyrrolidine-2-carboxylic acid (3,5-dimethyl-phenyl)-amide]: the concentration for half-maximal inhibition (IC50) in test [1] (setting [3]) turned out to be 189 nM; in test [2] (setting [3]), 92 nM.
On to `COc1ccc(S(=O)(=O)N2CCC[C@H]2C(=O)Nc2cc(OC)cc(OC)c2)cc1` [Example 27, (S)-1-(4-Methoxy-benzenesulfonyl)-pyrrolidine-2-carboxylic acid (3,5-dimethoxy-phenyl)-amide], for which the figures for the IC50 in test [1] (compound incubation 10 min) and in test [2] (compound incubation 10 min) were 121 nM and 16 nM, respectively.

As a reminder, the IC50 is the concentration at which inhibition is half-maximal.
